How the values were obtained:
Escherichia coli [1] = assay: Potentiation of aztreonam-induced antibacterial activity against Escherichia coli 308 producing SHV-5 assessed as concentration required to reduce aztreonam MIC to 4 ug/ml by CLSI based broth microdilution method; format: functional
Klebsiella pneumoniae [2] = assay: Potentiation of aztreonam-induced antibacterial activity against Klebsiella pneumoniae 1009 producing class A CTX-M-14 assessed as concentration required to reduce aztreonam MIC to 4 ug/ml by CLSI based broth microdilution method; format: functional
Escherichia coli [3] = assay: Potentiation of aztreonam-induced antibacterial activity against Escherichia coli 302 producing TEM-10 assessed as concentration required to reduce aztreonam MIC to 4 ug/ml by CLSI based broth microdilution method; format: functional
Klebsiella pneumoniae [4] = assay: Potentiation of aztreonam-induced antibacterial activity against Klebsiella pneumoniae 1004 producing KPC assessed as concentration required to reduce aztreonam MIC to 4 ug/ml by CLSI based broth microdilution method; format: functional
Enterobacter cloacae = assay: Potentiation of aztreonam-induced antibacterial activity against Enterobacter cloacae 1002 producing AmpC assessed as concentration required to reduce aztreonam MIC to 4 ug/ml by CLSI based broth microdilution method; format: functional
Escherichia coli [5] = assay: Potentiation of aztreonam-induced antibacterial activity against Escherichia coli 1010 producing CMY-6 assessed as concentration required to reduce aztreonam MIC to 4 ug/ml by CLSI based broth microdilution method; format: functional
[6] = Oral bioavailability in rat; format: ADME, organism-based; details: in vivo
[7] = AUC in rat at 30 mg/kg, po measured upto 24 hrs by HPLC-MS analysis; format: ADME, organism-based; set-up: dose 30 mg/kg, time < 24 hrs, route po; details: in vivo
[8] = AUC in rat at 100 mg/kg, po measured upto 24 hrs by HPLC-MS analysis; format: ADME, organism-based; set-up: time < 24 hrs, dose 100 mg/kg, route po; details: in vivo
[9] = AUC in rat at 300 mg/kg, po measured upto 24 hrs by HPLC-MS analysis; format: ADME, organism-based; set-up: dose 300 mg/kg, time < 24 hrs, route po; details: in vivo
[10] = Oral bioavailability in rat at 30 mg/kg measured upto 24 hrs by HPLC-MS analysis; format: ADME, organism-based; details: in vivo
[11] = Oral bioavailability in rat at 100 mg/kg measured upto 24 hrs by HPLC-MS analysis; format: ADME, organism-based; details: in vivo
[12] = Oral bioavailability in rat at 300 mg/kg measured upto 24 hrs by HPLC-MS analysis; format: ADME, organism-based; details: in vivo
[13] = AUC in rat at 30 mg/kg administered as iv infusion for 0.5 hrs and measured upto 24 hrs by HPLC-MS analysis; format: ADME, organism-based; set-up: time < 24.5 hrs, dose 30 mg/kg, route iv; details: in vivo
[14] = AUC in rat at 100 mg/kg administered as iv infusion for 0.5 hrs and measured upto 24 hrs by HPLC-MS analysis; format: ADME, organism-based; set-up: dose 100 mg/kg, time < 24.5 hrs, route iv; details: in vivo
[15] = AUC in rat at 300 mg/kg administered as iv infusion for 0.5 hrs and measured upto 24 hrs by HPLC-MS analysis; format: ADME, organism-based; set-up: time < 24.5 hrs, dose 300 mg/kg, route iv; details: in vivo
Klebsiella pneumoniae [16] = assay: microbe, parasite or virus in culture; details: 1009
Escherichia coli [17] = assay: microbe, parasite or virus in culture; details: 308
Escherichia coli [18] = assay: microbe, parasite or virus in culture; details: 302
Klebsiella pneumoniae [19] = assay: microbe, parasite or virus in culture; details: 1004
Escherichia coli [20] = assay: microbe, parasite or virus in culture; details: 1010

Row | SMILES | EC (Escherichia coli [1]) [µg/mL] | EC (Klebsiella pneumoniae [2]) [µg/mL] | EC (Escherichia coli [3]) [µg/mL] | EC (Klebsiella pneumoniae [4]) [µg/mL] | EC (Enterobacter cloacae) [µg/mL] | EC (Escherichia coli [5]) [µg/mL] | other results
1 | O=C(O)C[C@@H]1CC[C@H](NC(=O)Cc2cccs2)B(O)O1 [VABORBACTAM] | >40 | >40 | >40 | 1.25 | 20 | 20 | bioavailability [6]: < 10%
2 | O=C(O)CC1CCC[C@H](NC(=O)Cc2cccs2)B(O)O1 (stereo partly drawn) | 10 | 10 | >40 | 20 | 10 | 10 | 
3 | CSCC(=O)N[C@H]1CC=C[C@@H]2CC(=O)OB1O2 |  |  |  |  |  |  | AUC at 24 h [7]: 14600 ng·h/mL; AUC at 24 h [8]: 55000 ng·h/mL; AUC at 24 h [9]: 179000 ng·h/mL; bioavailability [10]: 52%; bioavailability [11]: 69.3%; bioavailability [12]: 64.9%
4 | O=C(O)CC1C=CC[C@H](NC(=O)Cc2cccs2)B(O)O1 (stereo partly drawn) | 2.5 | 10 | 10 | 20 | 10 | 20 | 
5 | Nc1nnc(SCC(=O)N[C@H]2CC=C[C@H](CC(=O)O)OB2O)s1 | 1.25 | 2.5 | 5 | 5 | 0.6 | 1.25 | 
6 | O=C(Cc1cccs1)N[C@H]1CC=C[C@@H]2CC(=O)OB1O2 |  |  |  |  |  |  | bioavailability [6]: 48%
7 | CC(=O)N1CC(CC(=O)O)OB(O)[C@@H](NC(=O)Cc2cccs2)C1 (stereo partly drawn) | 1.25 | 5 | 20 | 40 | 20 | 10 | 
8 | O=C(O)C[C@H]1C=CC[C@H](NC(=O)c2cccnc2)B(O)O1 | 2.5 | 5 | 1.25 | 10 | 1.25 | 1.25 | 
9 | COC(=O)N1CC(CC(=O)O)OB(O)[C@@H](NC(=O)Cc2cccs2)C1 (stereo partly drawn) | 2.5 | 10 | 20 | 40 |  | 20 | 
10 | O=C(O)C[C@@H]1C=CC[C@H](NC(=O)Cc2cccs2)B(O)O1 | 10 | 20 | >40 | 40 | 10 | 40 | 
11 | CSCC(=O)N[C@H]1CC=C[C@H](CC(=O)[O-])OB1O.[Na+] |  |  |  |  |  |  | AUC at 24.5 h [13]: 28100 ng·h/mL; AUC at 24.5 h [14]: 79400 ng·h/mL; AUC at 24.5 h [15]: 276000 ng·h/mL; AUC at 24 h [7]: 2600 ng·h/mL; bioavailability [10]: 9.3%
12 | O=C(O)C[C@H]1C=CC[C@H](NC(=O)Cc2cccs2)B(O)O1 | 1.25 | 5 | 5 | 10 | 2.5 | 10 | 
13 | CSCC(=O)N[C@H]1CC=C[C@H](CC(=O)O)OB1O | 1.25 | 2.5 | 5 | 10 | 1.25 | 5 | 
14 | C[C@H]1[C@H](NC(=O)/C(=N\OC(C)(C)C(=O)O)c2csc(N)n2)C(=O)N1S(=O)(=O)O [AZTREONAM] |  |  |  |  |  |  | MIC (Klebsiella pneumoniae [16]): > 64 µg/mL; MIC (Escherichia coli [17]): > 64 µg/mL; MIC (Escherichia coli [18]): > 64 µg/mL; MIC (Klebsiella pneumoniae [19]): > 64 µg/mL; MIC (Escherichia coli [20]): > 64 µg/mL
15 | O=C(O)CC1COC[C@H](NC(=O)Cc2cccs2)B(O)O1 (stereo partly drawn) | 5 | 5 | 20 | 40 | 10 | 10 | 

Reference: ChEMBL document CHEMBL5143649, “Broad-spectrum cyclic boronate β-lactamase inhibitors featuring an intramolecular prodrug for oral bioavailability” (Bioorg Med Chem, 2022)
